Test results taken from patent EP1238058B1, “USE OF COLOSTRININ, C[…] AND ANALOGS THEREOF TO PROMOTE NEURAL CELL DIFFERENTIATION” (THE UNIVERSITY OF TEXAS SYSTEM, priority 1999, dated 2001).

Test system: medullary pheochromocytoma (PC 12) cells
Assay: PC12 cell differentiation (morphology) assay
Format: cell-based
Conditions: TPA 10 ng per ml, negative control
Method: Cells: PC12 cell line derived from medullary pheochromocytoma cells were used to undertake studies described bellow. PC 12 cells were obtained from the American Type Culture Collection and maintained in RPMI-1640 supplemented with 10% fetal bovine serum (HYCLONE Inc), penicillin (100 U/ml) and streptomycin (100 µg/ml).
Methods: To evaluate the effect of colostrum, colostrinin and its component peptides on cell differentiation 3 x 10^4 logarithmically replicating (70% confluence) PC 12 cells were seeded in 24 x well plates and cells were allowed to adhere and grow for 24 hours. Serum containing media were aspirated and replaced for serum-free RPMI containing appropriate amount of antibiotics. In four parallel, increasing concentrations (0.1, 1, 10 and 100 µg per ml) of colostrum, colostrinin and its component peptides were added directly into the media and incubated at 37°C. As a positive control, nerve growth factor (NGF) 7S (Gibco-BRL) was used at 100 ng per ml concentration (Chao et al., Cell, 68, 995-997 (1992); and Marshall et al., Cell, 80, 179-185 (1995)). Phorbol 12-myristate 13-acetate (TPA: 10 ng per ml) was used as a negative control. Eight hours later the media were changed and RPMI-1640 was added containing 1% or 10% fetal bovine serum. The cultures were microscopically investigated 2nd, 4th and 6th days after treatment. […]

Phorbol 12-myristate 13-acetate [TPA]
background level of differentiation: less than 0.01%
